Earlier results as cited in patent US20120058942A1, “METHODS FOR CONTROLLING BLOOD-GLUCOSE LEVELS IN INSULIN-REQUIRING SUBJECTS” (priority 2010, published 2012).
No end group written: not given here.

Legend:
[1] = human volunteers, insulin-treated T1D
[2] = humans with diabetes mellitus

Substance | rise in blood glucose that accompanies absorption of a standard meal ([1]; continued insulin by IIT) | absorption of the meal ([1]; standard meal) | secretion of glucagon ([1]; standard meal) | stimulation of insulin secretion [2]
Glucagon-like peptide-1 (HAEGTFTSDVSSYLEGQAAKEFIAWLVKGR; ends and bridges not checked; UniProt P01275 98-127, looked up) [GLP-1, incretin; post-translational product of the glucagon gene in the intestinal L-cell] | powerfully restrict the rise in blood glucose | delay in absorption of the meal | suppression of secretion of glucagon | capable of stimulating insulin secretion
gastric-inhibitory polypeptide (YAEGTFISDYSIAMDKIHQQDFVNWLLAQKGKKNDWKHNITQ; Gastric inhibitory polypeptide; UniProt P09681 52-93, looked up) [GIP, insulin-stimulating hormone of the entero-insular axis] | – | – | – | failed to stimulate insulin secretion
